The text below walks through data of US20030100769A1, “Cyclic amidine compounds” (priority 2000, published 2003).

Assay [1] concerns the target α1β1γδ subtype of nicotinic acetylcholine receptors (Rattus norvegicus, UniProt P18916+P25108+P25109+P25110). In words: biochemical. It counts as binding. An excerpt:
(§1) The methods for evaluating the binding capabilities of the compounds at nicotinic acetylcholine receptors are different by subtypes of receptors. The binding capabilities of the compounds at α4β2 nicotinic acetylcholine receptors are examined using rat brain membrane obtained from whole homogenized brain, and determining the inhibiting rate of the compounds against [^3H]-cytisine binding to said brain membrane. Furthermore, the binding capabilities of the compounds at α1β1γδ nicotinic acetylcholine receptors are examined using homogenized rat muscle, and determining the inhibiting rate of the compounds against [^3H]-α-bungarotoxin binding to said muscle homogenate.
Binding Assays at α1β1γδ Subtype of Nicotinic Acetylcholine Receptors
The affinity of the compounds of the present invention to α1β1γδ subtype of nicotinic acetylcholine receptors was measured by the following method, which was modified method described by Garcha H. S., Thomas P., Spivak C.
(1) Preparation of Rat Skeletal Muscles Containing α1β1γδ Subtype of Nicotinic Acetylcholine Receptors
The substantially same animals described in the Biological Experiment 1 were used.
The isolation of α1β1γδ subtype of nicotinic acetylcholine receptors was performed as follow. That is, rat posterior skeletal muscles were isolated just after sacrificed by decapitation, washed with ice-cooled saline solution and then frozen at −80° C. with liquid nitrogen and stored till using. After thawing the frozen muscles, tissue was homogenized ([…]) with buffer solution [2.5 mM of sodium phosphate buffer (pH:7.2), 90 mM of NaCl, 2 mM of KCl, 1 mM of EDTA, 2 mM of benzamidine, 0.1 mM of benzethonium chloride, 0.1 mM of PMSF, 0.01% of sodium azide] in Waring blender (Waring blender 34BL97; WARING PRODUCTS DIVISION DYNAMICS CORPORATION OF AMERICA) for 60 seconds. The homogenate were centrifuged under 20,000×G for 60 minutes at 4° C. The supernatant was separated and the resulting pellet was added to the same buffer (1.5 ml/g wet weight), and homogenized under the same conditions. Triton X100 (2% w/v) was added and the mixture was stirred for 3 hours at 4° C. The centrifugation at 100,000×G for 60 minutes at 4° C. yielded the rat muscle extract as supernatant. This was stored at 4° C. for up to 4 weeks, and used for binding assays at receptors.
(2) Experiments of α1β1γδ Subtype of Nicotinic Acetylcholine Receptors Binding
Receptors binding experiments were performed as follow. That is, the extract of rat muscle containing 600-900 μg of protein was added to test tubes containing test compounds and incubated for 15 minutes at 37° C. Then, to this mixture was added 1 nM of [^3H]-α-bungarotoxin (α-Bgt) and further incubated for 2 hours. The samples were isolated by vacuum filtration onto Whatman GF/B filters, which were prerinsed with 0.5% polyethylenimine just prior to sample filtration, using Brandel multi manifold cell harvester. The filters were rapidly rinsed with washing solution (10 mM of KH2PO4, 150 mM of NaCl, pH 7.2, room temperature) (5×1 ml). The filters were counted in 3 ml of clearsol I (Nacalai Tesque Inc.). The determination of nonspecific binding was incubated in the presence of 1 μM α-Bgt. […] In the receptor binding experiments, said buffer solution was added for adjusting the final concentration of BSA to be 0.05%.
The analyses of the experimental results were conducted by the same way as described in the Biological Experiment 1.

Assay [2] addresses T1, α4β2 subtype of nicotinic acetylcholine receptors (Rattus norvegicus, UniProt P09483+P12390).
T1 construct: examined using rat brain membrane obtained from whole homogenized brain; from tissue; host or cells: rat whole brain membranes (Fischer-344 male rats)
The assay is described as follows: Binding assay at α4β2 subtype of nicotinic acetylcholine receptors ([3H]-cytisine, rat brain membrane).
Text: as §1
Binding Assays at α4β2 Subtype of Nicotinic Acetylcholine Receptors
(1) Preparation of Rat Brain Membrane Containing α4β2 Subtype of Nicotinic Acetylcholine Receptors
Rats were housed in the breeding cage controlled of the room temperature at 23±1° C., and the humidity of 55±5% for 1 to 4 weeks. Rats (3 to 4 rats per a cage) were housed with lights on for 12 hours daily (from 7:00 to 19:00), and allowed free access to food and water.
Preparation of rat brain membrane containing α4β2 subtype of nicotinic acetylcholine receptors was performed as follow. That is, rat brains were isolated just after sacrificed by decapitation, washed with ice-cooled saline solution and then frozen at −80° C. with liquid nitrogen and stored till using. After thawing the frozen brain, the brain was homogenized in 10 volumes of ice-cooled buffer solution (50 mM of Tris-HCl, 120 mM of NaCl, 5 mM of KCl, 1 mM of MgCl2, 2 mM of CaCl2; pH 7.4; 4° C.) using homogenizer (HG30, Hitachi Kohki Ltd.) for 30 seconds, and the homogenate were centrifuged under 1,000×G for 10 minutes at 4° C. The resulting supernatant was separated and the pellet was homogenized again with half volume of aforementioned prior buffer solution and centrifuged under the same conditions. Combined supernatant was further centrifuged under 40,000×G for 20 minutes at 4° C. The pellet was suspended in buffer solution and used for binding assays at receptors.
(2) Experiments of α4β2 Subtype of Nicotinic Acetylcholine Receptors Binding
Suspensions of membrane pellets containing 400-600 μg of protein were added to test tubes containing test compounds and [^3H]-cytisine (2 nM) in a final volume of 200 μl and incubated for 75 minutes in ice-cooled bath. The samples were isolated by vacuum filtration onto Whatman GF/B filters, which were prerinsed with 0.5% polyethylenimine just prior to sample filtration, using Brandel multi manifold cell harvester. The filters were rapidly washed with buffer solution (3×1 ml). The filters were counted in 3 ml of clearsol I (Nacalai Tesque Inc.).
The analyses of the experimental results were conducted by using the Accufit Competition Program (Beckman Ltd.).

Assay [3] deals with T2, human α4β2 subtype of nicotinic acetylcholine receptors (Homo sapiens, UniProt P17787+P43681).
T2 construct: expressed in transfected cells; host or cells: Xenopus laevis oocytes injected with hnACh-R α4 and β2 cRNA (pSP64 polyA)
T2 sequence (P43681 29-627 limits assumed): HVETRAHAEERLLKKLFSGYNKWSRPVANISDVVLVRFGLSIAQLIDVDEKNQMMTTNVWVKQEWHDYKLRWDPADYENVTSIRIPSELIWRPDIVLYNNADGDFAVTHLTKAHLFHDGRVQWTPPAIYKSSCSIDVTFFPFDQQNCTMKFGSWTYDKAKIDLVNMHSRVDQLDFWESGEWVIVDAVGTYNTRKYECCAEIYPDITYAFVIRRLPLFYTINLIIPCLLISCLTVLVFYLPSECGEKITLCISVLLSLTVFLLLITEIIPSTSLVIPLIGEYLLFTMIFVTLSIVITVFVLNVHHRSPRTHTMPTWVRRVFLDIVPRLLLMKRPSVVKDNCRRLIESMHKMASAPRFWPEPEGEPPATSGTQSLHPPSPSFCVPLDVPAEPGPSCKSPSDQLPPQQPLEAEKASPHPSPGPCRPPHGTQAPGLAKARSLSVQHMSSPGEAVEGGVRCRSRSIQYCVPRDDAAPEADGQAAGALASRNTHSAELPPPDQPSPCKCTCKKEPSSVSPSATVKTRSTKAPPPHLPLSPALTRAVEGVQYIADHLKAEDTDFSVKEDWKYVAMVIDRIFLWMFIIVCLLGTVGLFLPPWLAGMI
T2 sequence (P17787 26-502): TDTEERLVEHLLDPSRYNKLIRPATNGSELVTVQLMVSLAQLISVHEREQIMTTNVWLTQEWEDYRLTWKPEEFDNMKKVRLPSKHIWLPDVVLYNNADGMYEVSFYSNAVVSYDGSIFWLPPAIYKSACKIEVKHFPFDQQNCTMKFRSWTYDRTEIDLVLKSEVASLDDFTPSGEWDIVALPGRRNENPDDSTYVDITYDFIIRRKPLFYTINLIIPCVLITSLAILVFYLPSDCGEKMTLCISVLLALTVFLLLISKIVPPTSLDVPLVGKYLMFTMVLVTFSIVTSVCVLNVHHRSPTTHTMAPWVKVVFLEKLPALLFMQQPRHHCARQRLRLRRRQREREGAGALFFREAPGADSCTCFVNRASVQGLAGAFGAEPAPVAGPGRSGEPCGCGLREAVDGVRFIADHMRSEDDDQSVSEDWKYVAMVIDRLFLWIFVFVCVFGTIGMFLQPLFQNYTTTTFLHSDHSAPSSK
In words: Agonist activities at human α4β2 subtype of nicotinic acetylcholine receptors expressed in Xenopus oocytes (membrane potential holding method). Format: cell-based. Conditions: 100 μM test compound, relative to 10 μM acetylcholine (100%). On the procedure: The agonist effect in human α4β2 subtype of nicotinic acetylcholine receptors are examined by using human nicotinic acetylcholine receptors prepared in oocytes of Xenopus laevis, which is injected with cRNA from the corresponding cloning cDNA of human α4 and β2 subunits of nicotinic acetylcholine receptors, and to measure the expression of the electric response by adding the test compounds to perfusion solution by means of membrane potential holding method.
Agonist Activities at Human α4β2 Subtype of Nicotinic Acetylcholine Receptors
(1) Preparation of cRNA of Human α4β2 Subtype of Nicotinic Acetylcholine Receptors
The obtained hnACh-R α4 cDNA and hnACh-R β2 cDNA were inserted to the cRNA expression vector (pSP64 polyA) having SP6 RNA promoter to construct hnACh-R α4/pSP64 polyA and hnACh-R β2/pSP64 polyA, respectively. After cutting from expression vector by restriction enzyme (EcoRI), transcription was performed by affecting SP6 RNA polymerase in the presence of cap analogues to obtain hnACh-R α4 cRNA and hnACh-R β2 cRNA, respectively.
(2) Expression of Human α4β2 Subtype Nicotinic Acetylcholine Receptors in Xenopus Oocytes
Oocytes were purchased from Kitanihonseibutsukyohzai Co., Ltd., which were already enucleated from Xenopus laevis, and used in this experiment.
The oocytes were treated with collagenase (Sigma type I; 1 mg/ml) in calcium-free modified Birth's solution (88 mM of NaCl, 1 mM of KCl, 2.4 mM of NaHCO3, 0.82 mM of MgSO4, 15 mM of HEPES, pH 7.6) under gently stirring at room temperature for 90 minutes, and washed out the enzyme from the tissue. Then, oocytes were separated from ovarian follicle by tweezers, and isolated oocytes were placed in antibiotics containing modified Birth's solution (88 mM of NaCl, 1 mM of KCl, 2.4 mM of NaHCO3, 0.82 mM of MgSO4, 15 mM of HEPES, pH 7.6, and 0.1 v/v % of mixture solution containing of penicillin and streptomycin for incubation; Sigma Co.). […] In oocytes, heterogeneous quintuple [(α4)2(β2)3] was composed by translation of injected cRNAs, and ion channel receptors were constructed on cell membrane.
(3) Agonist Activities at Human α4β2 Subtype of Nicotinic Acetylcholine Receptors
The recordings of responses at human α4β2 subtype of nicotinic acetylcholine receptors by means of membrane potential holding method were performed as follow. […] Test compounds were added to the perfusion solution, and recorded the peak strength of induced inward current. In order to normalize the responses of test compounds, the responses with acetylcholine (Ach) were recorded before and after application of the test compounds. Generally in the oocytes just after isolated, the response of intrinsic muscarinic acetylcholine receptors, which is inward current caused by activation of calcium dependence chloride ion channels with increase of the intracellular calcium concentration by stimulation of receptors, is observed. […] Therefore, the responses observed in oocytes with injection of hnACh-R α4 cRNA and hnACh-R β2 cRNA, i.e., the inward current induced by the intracellular influx of sodium ion according to the stimulation of receptors, would be the freshly observed responses of human α4β2 subtype nicotinic acetylcholine receptors.

The structures appear in SMILES notation.

α1β1γδ subtype of nicotinic acetylcholine receptors, sequence (P25109 24-501): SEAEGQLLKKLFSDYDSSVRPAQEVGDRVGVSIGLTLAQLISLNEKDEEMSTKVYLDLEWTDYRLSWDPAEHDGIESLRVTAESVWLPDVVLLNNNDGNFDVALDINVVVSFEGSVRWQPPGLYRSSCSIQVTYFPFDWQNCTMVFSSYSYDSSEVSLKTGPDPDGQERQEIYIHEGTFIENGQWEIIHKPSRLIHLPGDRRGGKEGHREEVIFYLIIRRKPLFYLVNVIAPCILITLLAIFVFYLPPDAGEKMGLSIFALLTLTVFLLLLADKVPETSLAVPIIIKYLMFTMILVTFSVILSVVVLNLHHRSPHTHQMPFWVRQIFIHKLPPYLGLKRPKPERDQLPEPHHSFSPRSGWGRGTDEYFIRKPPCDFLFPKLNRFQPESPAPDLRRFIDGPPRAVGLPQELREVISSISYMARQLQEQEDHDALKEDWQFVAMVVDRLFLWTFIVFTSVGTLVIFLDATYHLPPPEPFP
α1β1γδ subtype of nicotinic acetylcholine receptors, sequence (P25110 22-517): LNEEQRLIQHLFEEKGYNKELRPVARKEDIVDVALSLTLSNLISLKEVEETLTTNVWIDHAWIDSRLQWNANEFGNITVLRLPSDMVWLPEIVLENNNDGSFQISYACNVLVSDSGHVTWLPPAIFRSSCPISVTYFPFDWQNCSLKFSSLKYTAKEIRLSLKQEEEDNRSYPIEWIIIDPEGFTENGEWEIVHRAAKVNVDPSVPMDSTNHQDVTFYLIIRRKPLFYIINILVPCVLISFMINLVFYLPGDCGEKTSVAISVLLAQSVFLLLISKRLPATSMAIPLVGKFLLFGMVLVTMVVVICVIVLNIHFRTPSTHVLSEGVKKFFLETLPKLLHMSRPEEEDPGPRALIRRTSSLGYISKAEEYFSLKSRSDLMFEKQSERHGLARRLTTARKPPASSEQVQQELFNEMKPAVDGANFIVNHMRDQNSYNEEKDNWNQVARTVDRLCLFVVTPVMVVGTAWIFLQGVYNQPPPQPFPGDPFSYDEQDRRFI
α1β1γδ subtype of nicotinic acetylcholine receptors, sequence (P25108 21-457): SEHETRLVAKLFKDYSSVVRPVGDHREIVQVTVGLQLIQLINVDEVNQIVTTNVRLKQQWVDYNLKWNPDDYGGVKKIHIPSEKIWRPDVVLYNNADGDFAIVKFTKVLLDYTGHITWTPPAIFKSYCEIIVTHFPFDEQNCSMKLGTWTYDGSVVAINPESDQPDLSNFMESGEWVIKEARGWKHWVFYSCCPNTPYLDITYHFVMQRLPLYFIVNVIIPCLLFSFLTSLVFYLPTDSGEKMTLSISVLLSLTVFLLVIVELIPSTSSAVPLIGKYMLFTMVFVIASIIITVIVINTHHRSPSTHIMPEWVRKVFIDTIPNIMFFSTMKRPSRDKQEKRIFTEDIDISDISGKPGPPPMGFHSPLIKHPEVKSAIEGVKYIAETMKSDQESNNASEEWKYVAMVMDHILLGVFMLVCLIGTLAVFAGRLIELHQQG
T1 sequence (P09483 31-630): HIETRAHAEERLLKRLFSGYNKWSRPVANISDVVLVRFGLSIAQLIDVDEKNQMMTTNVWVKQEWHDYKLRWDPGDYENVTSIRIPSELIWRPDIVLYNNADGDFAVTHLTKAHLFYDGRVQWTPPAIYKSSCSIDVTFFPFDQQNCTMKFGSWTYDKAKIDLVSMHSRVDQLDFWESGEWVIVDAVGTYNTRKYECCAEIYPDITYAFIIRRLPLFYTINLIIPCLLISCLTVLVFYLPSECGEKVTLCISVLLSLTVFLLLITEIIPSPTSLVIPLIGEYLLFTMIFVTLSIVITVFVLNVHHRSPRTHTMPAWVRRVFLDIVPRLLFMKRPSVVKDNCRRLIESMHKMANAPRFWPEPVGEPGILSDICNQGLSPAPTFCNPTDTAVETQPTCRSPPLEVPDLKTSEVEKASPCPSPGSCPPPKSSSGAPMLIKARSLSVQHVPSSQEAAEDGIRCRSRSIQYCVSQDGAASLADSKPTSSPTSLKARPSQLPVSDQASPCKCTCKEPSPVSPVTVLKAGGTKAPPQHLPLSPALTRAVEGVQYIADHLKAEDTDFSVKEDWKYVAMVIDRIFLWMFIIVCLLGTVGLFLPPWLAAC
T1 sequence (P12390 25-500): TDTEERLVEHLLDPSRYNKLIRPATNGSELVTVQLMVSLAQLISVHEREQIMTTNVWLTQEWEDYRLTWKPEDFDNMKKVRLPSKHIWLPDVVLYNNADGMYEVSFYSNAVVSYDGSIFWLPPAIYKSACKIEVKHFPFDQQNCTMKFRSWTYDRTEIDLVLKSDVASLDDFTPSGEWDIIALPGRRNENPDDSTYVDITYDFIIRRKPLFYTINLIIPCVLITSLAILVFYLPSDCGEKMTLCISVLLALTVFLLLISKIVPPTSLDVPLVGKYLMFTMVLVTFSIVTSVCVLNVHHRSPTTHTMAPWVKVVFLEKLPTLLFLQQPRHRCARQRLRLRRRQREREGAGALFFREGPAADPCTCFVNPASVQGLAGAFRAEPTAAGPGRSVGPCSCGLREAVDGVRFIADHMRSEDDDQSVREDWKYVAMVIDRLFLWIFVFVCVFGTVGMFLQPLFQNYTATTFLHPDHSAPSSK

`Clc1ccc(CN2C=NCCC2)cn1` [Compound 27, 1-(6-chloro-3-pyridyl)methyl-1,4,5,6-tetrahydropyrimidine]: the Ki – broadly, the equilibrium dissociation constant of an inhibitor or competing ligand from its target – in assay [1] was determined as 45 µM; in assay [2], 0.002 µM. The “Agonist activity: control % by response at 100 μM of the test compound” value (“Agonist activity: control % by response” below) in assay [3] is given as “(18.0%)”.
For the compound `Cc1ccc(CC2=NCCN2)cn1` [Compound 45, 2-(6-methyl-3-pyridyl)methyl-2-imidazoline], in assay [3], the “Agonist activity: control % by response” value is reported as “(12.0%)”.
For the compound `Cc1ccc(CN2C=NCCC2)cn1` [Compound 57, 1-(6-methyl-3-pyridyl)methyl-1,4,5,6-tetrahydropyrimidine], the Ki is 86 µM in assay [1] and 0.012 µM in assay [2]. In assay [3], the “Agonist activity: control % by response” value is recorded as “(9.1%)”.
The matching figures for `C1=NCCCN1Cc1cccnc1` [Compound 58, 1-(3-pyridyl)methyl-1,4,5,6-tetrahydropyrimidine]: 32 µM, 0.0069 µM and “(27.9%)”.
On the same counts, the results for `CC1=NCCN1CCc1ccc(Cl)nc1` [Compound 62, 1-[2-(6-chloro-3-pyridyl)ethyl]-2-methyl-2-imidazoline] are 639 µM, 0.07 µM and “(9.6%)”.
